Assay results from BigSolDB 2.1.

Cc1ncc([N+](=O)[O-])n1CCO
solubility (mole fraction)
Settings | in chloroform | in ethanol | in ethyl acetate | in isopropanol | in methanol | in n-butanol | in water
293.15 K | 0.00128 | 0.00433 | 0.00299 | 0.00396 | 0.00641 | 0.00533 | 0.000872
297.55 K | 0.0016 | 0.00596 | 0.00395 | 0.00462 | 0.0076 | 0.00576 | –
298.45 K | – | – | – | – | – | – | 0.00104
302.55 K | 0.00226 | 0.00641 | 0.00495 | 0.00559 | 0.00925 | 0.00692 | –
306.95 K | – | – | – | – | – | – | 0.00146
307.55 K | 0.00288 | 0.00763 | 0.00605 | 0.00615 | 0.0112 | 0.00914 | –
308.65 K | – | – | – | – | – | – | 0.00152
312.35 K | 0.0036 | 0.00978 | 0.00713 | 0.00794 | 0.0138 | 0.0111 | –
313.15 K | – | – | – | – | – | – | 0.00181
317.85 K | 0.00418 | 0.0121 | 0.00887 | 0.0102 | 0.017 | 0.0132 | –
318.05 K | – | – | – | – | – | – | 0.00216
322.35 K | – | 0.0145 | 0.0121 | 0.0125 | 0.0201 | 0.0163 | –
322.95 K | – | – | – | – | – | – | 0.00265
